Data reported in the supplement of paper PMC8149375.

What was measured:
Details in all cases: treatment: drug alone; 5 days
UO-31 [1] = test: GI50, drug alone; higher = less potent
Protocol: (§1)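 Primary HTS: 8 RCC cell lines treated with 8 doses (up to 10 uM) of each library drug alone for 5 days; viability read by CellTiter-Glo and normalised to DMSO. GI50 was fitted with XLfit (4-parameter), AUC is the area under the dose-response curve, and minimum viability is the lowest fraction of DMSO viability across doses.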

SN12C [2] = test: GI50, drug alone; higher = less potent
Protocol: as §1

TK-10 [3] = test: GI50, drug alone; higher = less potent
Protocol: as §1

ACHN [4] = test: GI50, drug alone; higher = less potent
Protocol: as §1

A498 [5] = test: GI50, drug alone; higher = less potent
Protocol: as §1

CAKI-1 [6] = test: GI50, drug alone; higher = less potent
Protocol: as §1

769-P [7] = test: GI50, drug alone; higher = less potent
Protocol: as §1

786-O [8] = test: GI50, drug alone; higher = less potent
Protocol: as §1

UO-31 [9] = test: AUC of dose-response viability curve, drug alone (arbitrary (AUC of normalised viability)); higher = less growth inhibition
Protocol: as §1

SN12C [10] = test: as above
Protocol: as §1

TK-10 [11] = test: as above
Protocol: as §1

ACHN [12] = test: as above
Protocol: as §1

A498 [13] = test: as above
Protocol: as §1

CAKI-1 [14] = test: as above
Protocol: as §1

769-P [15] = test: as above
Protocol: as §1

786-O [16] = test: as above
Protocol: as §1

UO-31 [17] = test: minimum viability across doses, drug alone, relative to DMSO (fraction); higher = less growth inhibition
Protocol: as §1

SN12C [18] = test: as above
Protocol: as §1

TK-10 [19] = test: as above
Protocol: as §1

ACHN [20] = test: as above
Protocol: as §1

A498 [21] = test: as above
Protocol: as §1

CAKI-1 [22] = test: as above
Protocol: as §1

769-P [23] = test: as above
Protocol: as §1

786-O [24] = test: as above
Protocol: as §1

Row | Structure (SMILES) | GI50, drug alone (UO-31 [1]) [µM] | GI50, drug alone (SN12C [2]) [µM] | GI50, drug alone (TK-10 [3]) [µM] | GI50, drug alone (ACHN [4]) [µM] | GI50, drug alone (A498 [5]) [µM] | GI50, drug alone (CAKI-1 [6]) [µM] | GI50, drug alone (769-P [7]) [µM] | GI50, drug alone (786-O [8]) [µM] | AUC of dose-response viability curve (UO-31 [9]) | AUC of dose-response viability curve (SN12C [10]) | AUC of dose-response viability curve (TK-10 [11]) | AUC of dose-response viability curve (ACHN [12]) | AUC of dose-response viability curve (A498 [13]) | AUC of dose-response viability curve (CAKI-1 [14]) | AUC of dose-response viability curve (769-P [15]) | AUC of dose-response viability curve (786-O [16]) | minimum viability across doses (UO-31 [17]) | minimum viability across doses (SN12C [18]) | minimum viability across doses (TK-10 [19]) | minimum viability across doses (ACHN [20]) | minimum viability across doses (A498 [21]) | minimum viability across doses (CAKI-1 [22]) | minimum viability across doses (769-P [23]) | minimum viability across doses (786-O [24])
1 | CC(C)n1nc(-c2cc3cc(O)ccc3[nH]2)c2c(N)ncnc21 [PP242] | 4.1 | 0.677 | 0.522 | 0.348 | 2.91 | 0.523 | 1.55 | 1.3 | 3.42 | 2.23 | 2.12 | 2.07 | 2.93 | 2.12 | 2.56 | 2.02 | 0.00829 | 0.0949 | 0.0788 | 0.05 | 0.0519 | 0.0389 | 0.0576 | 0.00205
2 | Nc1ncnc2c1c(-c1cnc3[nH]ccc3c1)nn2C1CCCC1 [PP-121] | 1.53 | 1.04 | 0.415 | 0.455 | 2.73 | 0.583 | 1.35 | 0.429 | 3.41 | 2.54 | 2.1 | 2.23 | 3.11 | 2.37 | 2.53 | 2.13 | 0.0162 | 0.0559 | 0.0113 | 0.0162 | 0.0928 | 0.00982 | 0.0337 | 0.00427
3 | COc1ccc(COc2cc3oc(=O)c4cc(C(C)O)ccc4c3cc2OC)cc1 (configuration not stated) [Palomid 529] | > 10 | > 10 | > 10 | > 10 | > 10 | > 10 | > 10 | 5.75 | 5.25 | 3.3 | 2.69 | 3.5 | 4.44 | 3.57 | 3.39 | 2.56 | 1.2 | 0.844 | 0.633 | 0.893 | 1.12 | 0.668 | 0.854 | 0.251
4 | Cc1ccc(Nc2nccc(N(C)c3ccc4c(C)n(C)nc4c3)n2)cc1S(N)(=O)=O.Cl [Pazopanib HCl] | > 10 | 5.96 | > 10 | 5.26 | > 10 | 6.83 | > 10 | < 0.003 | 4.39 | 3.1 | 3.14 | 3.21 | 3.57 | 3.09 | 3.18 | 2.85 | 0.63 | 0.193 | 0.661 | 0.224 | 0.514 | 0.0579 | 0.207 | 0.427
5 | CCOc1cc2ncc(C#N)c(Nc3ccc(F)c(Cl)c3)c2cc1NC(=O)/C=C/CN(C)C [Pelitinib (EKB-569)] | 1.08 | 0.995 | 0.161 | 0.0629 | 2.19 | 0.209 | 0.357 | 0.589 | 3.24 | 2.38 | 1.75 | 1.41 | 2.96 | 1.87 | 2.02 | 2.08 | 0.027 | 0.0102 | 0.01 | 0.00498 | 0.0185 | 0.0302 | 0.0352 | 0.00469
6 | Cl.N=C(N)NC(=N)NCCc1ccccc1 [Phenformin hydrochloride] | 3.09 | 5.25 | 6.89 | > 10 | > 10 | > 10 | > 10 | 1.5 | 3.11 | 2.87 | 2.95 | 3.53 | 3.42 | 3.22 | 3.29 | 2.31 | 0.0295 | 0.0912 | 0.333 | 0.682 | 0.514 | 0.821 | 0.841 | 0.116
7 | Oc1cc(O)cc(/C=C/c2ccc(O)c(O)c2)c1 [Piceatannol] | > 10 | > 10 | > 10 | > 10 | > 10 | 7.74 | > 10 | 2.37 | 5.06 | 3.18 | 3.2 | 3.28 | 4.25 | 3.58 | 2.35 | 2.54 | 0.908 | 0.712 | 0.685 | 0.67 | 1.05 | 0.33 | 0.849 | 0.383
8 | Br.Cc1ccc(C(=O)Cn2c3c(sc2=N)CCCC3)cc1 [Pifithrin-α] | > 10 | > 10 | > 10 | > 10 | > 10 | > 10 | > 10 | > 10 | 3.69 | 3.09 | 2.84 | 3.14 | 4.11 | 3.26 | 3.5 | 1.95 | 0.864 | 0.76 | 0.636 | 0.743 | 0.946 | 0.871 | 0.918 | 0.385
9 | Nc1cccc2c1C(=O)N(C1CCC(=O)NC1=O)C2=O (configuration not stated) [Pomalidomide] | > 10 | > 10 | > 10 | > 10 | > 10 | > 10 | > 10 | 0.00888 | 3.85 | 3.38 | 3.12 | 3.14 | 3.01 | 3.49 | 3.35 | 2 | 1.01 | 0.884 | 0.818 | 0.85 | 0.732 | 0.924 | 0.887 | 0.424
10 | O=c1c(O)c(-c2ccc(O)c(O)c2)oc2cc(O)cc(O)c12 [Quercetin (Sophoretin)] | > 10 | > 10 | > 10 | > 10 | > 10 | > 10 | > 10 | > 10 | 3.57 | 3.13 | 3.01 | 3.48 | 3.6 | 3.2 | 3.3 | 2.36 | 0.807 | 0.821 | 0.736 | 0.899 | 0.923 | 0.861 | 0.784 | 0.53
11 | CC(C)(C)c1cc(NC(=O)Nc2ccc(-c3cn4c(n3)sc3cc(OCCN5CCOCC5)ccc34)cc2)no1 [Quizartinib (AC220)] | > 10 | > 10 | > 10 | 3.48 | > 10 | 2.62 | 4.3 | 1.36 | 5.25 | 3.25 | 2.84 | 2.72 | 4.53 | 2.38 | 2.98 | 2.76 | 1.16 | 0.819 | 0.612 | 0.381 | 1.07 | 0.408 | 0.234 | 0.129
12 | COc1cc(Nc2ncc(F)c(Nc3ccc4c(n3)NC(=O)C(C)(C)O4)n2)cc(OC)c1OC [R406(free base)] | 8.51 | 3.89 | 4.07 | 1.42 | > 10 | 1.26 | 9.62 | 1.59 | 4.5 | 2.79 | 2.44 | 2.35 | 4.42 | 2.61 | 3.13 | 2.21 | 0.0454 | 0.359 | 0.396 | 0.306 | 1 | 0.142 | 0.474 | 0.128
13 | COc1cc(Nc2ncc(F)c(Nc3ccc4c(n3)NC(=O)C(C)(C)O4)n2)cc(OC)c1OC.O=S(=O)(O)c1ccccc1 [R406] | 8.77 | 4.6 | 9.02 | 5.85 | > 10 | 1.33 | > 10 | 2.01 | 2.59 | 3.11 | 2.85 | 2.94 | 3.57 | 2.59 | 3.1 | 2.46 | 0.164 | 0.336 | 0.479 | 0.451 | 0.882 | 0.183 | 0.536 | 0.221
14 | COc1cc(Nc2ncc(F)c(Nc3ccc4c(n3)N(COP(=O)(O)O)C(=O)C(C)(C)O4)n2)cc(OC)c1OC [R788 (Fostamatinib)] | 6.02 | 2.98 | 3.3 | 1.22 | > 10 | 0.913 | 3.5 | 1.16 | 4.78 | 2.79 | 2.64 | 2.73 | 4.24 | 2.49 | 2.94 | 2.54 | 0.00902 | 0.287 | 0.308 | 0.0584 | 1.06 | 0.0246 | 0.145 | 0.158
15 | FC(F)(F)c1ccc(Nc2nc3cc(Oc4ccnc(-c5ncc(C(F)(F)F)[nH]5)c4)ccc3[nH]2)cc1 [Raf265 derivative] | 1.05 | > 10 | > 10 | 8.48 | > 10 | 9.39 | 9.97 | 5.37 | 3.5 | 3.32 | 3.18 | 3.47 | 4.16 | 3.62 | 3.24 | 2.69 | 0.0014 | 0.651 | 0.534 | 0.142 | 1.04 | 0.298 | 0.473 | 0.141
16 | CO[C@H]1C[C@@H]2CC[C@@H](C)[C@@](O)(O2)C(=O)C(=O)N2CCCC[C@H]2C(=O)O[C@H]([C@H](C)C[C@@H]2CC[C@@H](O)[C@H](OC)C2)CC(=O)[C@H](C)/C=C(\C)[C@@H](O)[C@@H](OC)C(=O)[C@H](C)C[C@H](C)/C=C/C=C/C=C/1C [Rapamycin (Sirolimus)] | < 0.003 | 1.76 | > 10 | 0.171 | > 10 | 0.358 | > 10 | < 0.003 | 0.524 | 2.11 | 2.04 | 1.77 | 2.44 | 1.91 | 2.08 | 0.986 | 0.0503 | 0.557 | 0.491 | 0.38 | 0.547 | 0.377 | 0.504 | 0.211
17 | CNC(=O)c1cc(Oc2ccc(NC(=O)Nc3ccc(Cl)c(C(F)(F)F)c3)c(F)c2)ccn1 [Regorafenib (BAY 73-4506)] | 2.55 | 8.24 | > 10 | 7.85 | > 10 | 7.35 | > 10 | > 10 | 3.11 | 3.16 | 3.02 | 3.38 | 3.76 | 3.16 | 3.39 | 2.63 | 0.186 | 0.387 | 0.536 | 0.39 | 0.883 | 0.363 | 0.894 | 0.598
18 | CC[C@H](CO)Nc1nc(NCc2ccccc2)c2ncn(C(C)C)c2n1 [Roscovitine (Seliciclib, CYC202)] | > 10 | > 10 | > 10 | 7.52 | > 10 | > 10 | > 10 | 4.97 | 3.47 | 3.57 | 3.17 | 3.25 | 3.91 | 3.27 | 3.28 | 2.76 | 0.544 | 0.769 | 0.655 | 0.36 | 1.03 | 0.763 | 0.848 | 0.208
